Structures can show the parent of a compound that is named as a salt. Where two headings read alike, the source gives them in different places.

For test [1], the target named is cdk4/cyclin D1 (Homo sapiens, UniProt P11802). The test is described as follows: Cyclin-dependent kinase assay, cdk4/cyclin D1. Type of test: biochemical. The conditions noted are these: cyclin D1/cdk4; GST-pRb substrate, 10 µM ATP.
Test [2] relates to MDA-MB-435. Kind of test: In vitro proliferation assay (MTT), MDA-MB-435. The conditions noted are these: value (SD, n) where given, read-out: MB-435 Breast (IC50 µM). Type of test: cell-based, human. The method, boiled down:
(§1)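 Step one: plate 1000 to 2500 cells per well and let them recover overnight. Step two: treat with compound for 3 days. Step three: add MTT, dissolve dye in DMSO, read absorbance at 570 nm and determine IC50.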

Test [3] relates to NCI-H460. Kind of test: In vitro proliferation assay (MTT), NCI-H460. The conditions noted are these: Homo sapiens, NCI-H460; MTT assay; value (SD, n) where given; read-out: H-460 Lung (IC50 µM). Type of test: cell-based. The method, then: (§2) The proliferation of tumor cells can be measured using a tetrazolium salt-based assay known as the MTT (3-[4,5-Dimethylthiazol-2-yl]-2,5-diphenyltetrazolium bromide) assay. The proliferation test is performed essentially as described by Carmichael et al., Cancer Res. 47: 936-942, 1987. For the assay, the cell lines are plated onto 96 well plates at 1000 to 2500 cells/well (depending on the properties of the individual cell lines), left to attach and recover overnight. […] After 3 days, the cells are incubated with MTT dye (3-[4,5-Dimethylthiazol-2-yl]-2,5-diphenyltetrazolium bromide, Sigma # M5655, 10 mg/ml in Hank's Buffered Saline) to estimate the amount of live cells remaining vs. concentration for the test compounds. Specifically, MTT solution is added to a final concentration of […] and the plates incubated at 37 C for 2 to 4 hr. The MTT and culture medium is then removed from the cultures and 200 µl of DMSO is added to solubilize the dye from the cell layer. The absorbance at 570 nm is determined for each culture using a Spectramax plate reader (Molecular Devices).
(§3) IC50s were determined from the raw data from either the MTT or SRB assays.
All of the cell lines were obtained from American Type Tissue Collection, with the ATCC accession number in parentheticals. MCF-7 and MDA-MB-231 cells were grown in improved minimum essential medium (Biofluids) without phenol red, supplemented with 5 % fetal bovine serum, 0.01 mg/ml gentamicin and 3 mM L-glutamine. All of the other cell lines were grown in RPMI 1640 medium (Life Technologies) supplemented with 5 % fetal bovine serum, 0.01 mg/ml gentamicin and 3 mM L-glutamine TABLE 3
(In general: Tetrazolium dyes change colour on reduction, which living cells bring about.)

Test [4] concerns PC-3. Kind of test: In vitro proliferation assay (MTT), PC-3. Type of test: cell-based, human. The conditions noted are these: value (SD, n) where given, read-out: PC-3 Prostate (IC50 µM). The method, boiled down:
as §1

For test [5], the system named is Colo-205. The test is described as follows: In vitro proliferation assay (MTT), Colo-205. Type of test: cell-based. Particulars: Homo sapiens, COLO 205; MTT assay; value (SD, n) where given; read-out: Colo-205 Colon (IC50 µM). Here is the method: as §2, §3
The target in test [6] is cdk1/cyclin B (Homo sapiens, UniProt P06493). Kind of test: Cyclin-dependent kinase assay, cdk1/cyclin B. Particulars: CDK1 IC50, nM, Histone H1, 10 µM ATP.
Chain of cdk1/cyclin B (P06493 whole entry): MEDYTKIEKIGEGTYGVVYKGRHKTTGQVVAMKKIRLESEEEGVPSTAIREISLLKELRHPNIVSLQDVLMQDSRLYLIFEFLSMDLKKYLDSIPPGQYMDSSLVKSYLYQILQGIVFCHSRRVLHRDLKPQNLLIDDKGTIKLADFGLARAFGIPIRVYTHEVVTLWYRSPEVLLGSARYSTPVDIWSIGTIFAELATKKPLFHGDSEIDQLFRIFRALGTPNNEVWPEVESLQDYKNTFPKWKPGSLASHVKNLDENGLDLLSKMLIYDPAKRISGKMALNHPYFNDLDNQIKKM
Chain of cdk1/cyclin B (P14635 whole entry partner): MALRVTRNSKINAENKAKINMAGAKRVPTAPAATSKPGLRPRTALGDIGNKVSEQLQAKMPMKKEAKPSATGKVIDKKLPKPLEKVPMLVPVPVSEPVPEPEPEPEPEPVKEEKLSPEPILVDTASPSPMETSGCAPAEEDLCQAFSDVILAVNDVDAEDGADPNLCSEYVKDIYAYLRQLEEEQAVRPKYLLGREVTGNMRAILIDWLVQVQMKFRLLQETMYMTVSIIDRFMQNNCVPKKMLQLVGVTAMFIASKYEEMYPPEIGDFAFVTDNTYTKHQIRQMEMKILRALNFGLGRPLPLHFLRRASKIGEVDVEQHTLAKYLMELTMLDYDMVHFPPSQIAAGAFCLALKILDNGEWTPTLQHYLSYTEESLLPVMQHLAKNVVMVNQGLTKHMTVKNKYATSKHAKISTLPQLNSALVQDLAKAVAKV
Experimental: The IC50 values for cdk1/cyclin B, cdk2/cyclin E, and cdk4/cyclin D1 inhibition are determined using the following methods: • The cdk1 sequence (accession number Y00272) is amplified by PCR and cloned into the BamHI and SalI sites of pFASTBAC1 (Life Technologies).
The cyclin B1 sequence (accession number M25753) is amplified by PCR and cloned into the BamHI and SalI sites of pFASTBAC1 (Life Technologies).
The insect cell (Sf9) expression is optimized for each of the CDK/cyclin pairs according to the manufacturer's protocols (Life Technologies). For cdk4-HA/cyclin D1-His6 an infection of 0.1 multiplicity of infection (MOI) for 48 hours gives the best expression levels of the complex as well as activity.
The viruses are added to the cells and the culture is incubated at 27°C for the desired time. The cells are harvested by centrifugation at 3000 rpm for 10 minutes. The cells are snap frozen on dry ice and stored at - 80°C.
Cell extracts are made following a standard procedure. The cell pellet is resuspended in lysis buffer (50 mM HEPES, pH 8.0, 10 mM MgCl2, 1 mM DTT, 2.5 mM EGTA, 1 mM EDTA, 10 mM β-glycerophosphate, 1 mM sodium vanadate, 1 mM sodium fluoride, 1 x Protease inhibitor cocktail). The cells are lysed using the microfluidizer (Microfluidics) for 20 minutes. Cell debris is removed by centrifugation at 100,000 x g. The cell extracts are aliquoted in 1 ml aliquots, frozen on dry ice, and stored at -80°C.
The kinase reactions are performed following a standard procedure. The enzyme and inhibitor are diluted in kinase buffer (50 mM HEPES, pH 8.0, 10 mM MgCl2, 2.5 mM EGTA, 10 mM β-glycerophosphate, 1 mM sodium vanadate, 1 mM sodium fluoride, and 1 mM DTT) and pre-incubated for 30 minutes. […] The cdk1 enzyme activity is assayed using Histone H1 (Sigma) in the presence of 10 µM ATP for 30 min at room temperature. The reactions are terminated by the addition of 50 µL of 10 mM cold ATP to stop the reactions. The reactions are transferred to a pre-soaked 96-well multi-screen plate containing 30 µL of 100% TCA per well. After incubation for one hour at room temperature, the plates are washed twice with 200 µl of 20% TCA, followed by 200 µl of 10% TCA and finally with 200 µl of 5% TCA. After drying the plates at room temperature, the filter plates are placed in adapter plates (Packard) and 40 µl of Microscint-O® (Packard) is added to each well. Top Seal A film is used to cover the plates before counting in a Top Count Scintillation Counter.
The % remained activity of the indicated Cdk/cyclin kinase complex in the presence of inhibitor is calculated by the ratio of cpm in the presence of inhibitor to cpm in the absence of inhibitor (%Activity = vi/vo x 100%).
The target of test [7] is cdk2/cyclin E (Homo sapiens, UniProt P24941). The test is described as follows: Cyclin-dependent kinase assay, cdk2/cyclin E. The conditions noted are these: CDK2 IC50, nM, GST-pRb substrate, 10 µM ATP.
Where [8] appears, read: Homo sapiens, MDA-MB-435, MTT assay.

Chain of cdk4/cyclin D1 (P11802 whole entry): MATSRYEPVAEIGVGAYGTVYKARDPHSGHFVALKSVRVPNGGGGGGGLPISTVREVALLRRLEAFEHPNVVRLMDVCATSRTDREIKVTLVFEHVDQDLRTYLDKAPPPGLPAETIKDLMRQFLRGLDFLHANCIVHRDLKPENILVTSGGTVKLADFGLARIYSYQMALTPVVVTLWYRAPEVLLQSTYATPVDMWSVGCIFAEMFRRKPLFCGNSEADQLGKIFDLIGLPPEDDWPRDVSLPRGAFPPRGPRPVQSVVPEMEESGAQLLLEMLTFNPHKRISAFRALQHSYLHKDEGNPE
Chain of cdk4/cyclin D1 (P24385 whole entry partner): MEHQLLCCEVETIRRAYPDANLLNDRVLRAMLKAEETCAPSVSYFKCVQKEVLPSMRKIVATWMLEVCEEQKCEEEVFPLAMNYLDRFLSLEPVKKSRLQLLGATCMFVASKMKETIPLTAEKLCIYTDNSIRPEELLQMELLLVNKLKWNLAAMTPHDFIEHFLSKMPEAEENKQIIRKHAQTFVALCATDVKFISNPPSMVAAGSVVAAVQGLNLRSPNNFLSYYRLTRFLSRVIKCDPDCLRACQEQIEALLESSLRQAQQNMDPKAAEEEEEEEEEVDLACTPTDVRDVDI

Broadly, the IC50 is the concentration that gives 50% inhibition. Turning to `CC(CC(=O)N1CCC(Nc2nc(N[C@H]3CC[C@H](N)CC3)nc3c2ncn3C2CCCC2)CC1)CC(C)(C)C` (mixture of isomers) [compound 45, (±)-trans-1-{4-[2-(4-Amino-cyclohexylamino)-9-cyclopentyl-9H-purin-6-ylamino]-piperidin-1-yl}-3,5,5-trimethyl-hexan-1-one dihydrochloride], the IC50 was 485 nM in test [1]; 0.31 µM in test [2] (setting [8]); 0.28 µM in test [3]; 0.45 µM in test [4] (Homo sapiens, PC-3, MTT assay); less than 0.02 µM in test [5]; 76 nM in test [6]. The IC50 in test [7] amounted to 154 nM.

On to `CCC(C(=O)N1CCC(Nc2nc(N[C@H]3CC[C@H](N)CC3)nc3c2ncn3C2CCCC2)CC1)c1ccccc1` (relative stereo) [compound 41, trans-1-{4-[2-(4-Amino-cyclohexylamino)-9-cyclopentyl-9H-purin-6-ylamino]-piperidin-1-yl}-2-phenyl-butan-1-one dihydrochloride], for which the IC50 in test [1] was 404 nM; in test [2] (setting [8]), 0.3 µM; in test [3], 0.31 µM; in test [4] (Homo sapiens, PC-3, MTT assay) it was 0.38 µM; in test [5], 0.11 µM; in test [6] it was 59 nM. For the same compound, in test [7], the IC50 worked out at 93 nM.

Regarding `N[C@H]1CC[C@H](Nc2nc(NC3CCN(C(=O)c4ccc(F)cc4)CC3)c3ncn(C4CCCC4)c3n2)CC1` [compound 1, trans-1-{4-[2-(4-Amino-cyclohexylamino)-9-cyclopentyl-9H-purin-6-ylamino]-piperidin-1-yl}-1-(4-fluoro-phenyl)-methanone dihydrochloride], the concentration for half-maximal inhibition (IC50) in test [1] is 555 nM; in test [2] (setting [8]) it was 0.69 µM; in test [3], greater than 50 µM; in test [4] (Homo sapiens, PC-3, MTT assay) it was 0.78 µM; in test [5], greater than 50 µM; in test [6], 64 nM. The compound also came in with an IC50 in test [7] of 98 nM.

With `N[C@H]1CC[C@H](Nc2nc(NC3CCN(C(=O)c4ccc(C(F)(F)F)cc4)CC3)c3ncn(C4CCCC4)c3n2)CC1` [compound 2, trans-1-{4-[2-(4-Amino-cyclohexylamino)-9-cyclopentyl-9H-purin-6-ylamino]-piperidin-1-yl}-1-(4-trifluoromethyl-phenyl)-methanone dihydrochloride], the IC50 is 427 nM in test [1]; 0.26 µM in test [2] (setting [8]); 0.15 µM in test [3]; 1.17 µM in test [4] (Homo sapiens, PC-3, MTT assay); less than 0.02 µM in test [5]; 48 nM in test [6]. This compound had an IC50 in test [7] of 92 nM.

Turning to `N[C@H]1CC[C@H](Nc2nc(NC3CCN(C(=O)c4cnc5ccccc5n4)CC3)c3ncn(C4CCCC4)c3n2)CC1` [compound 4, trans-1-{4-[2-(4-Amino-cyclohexylamino)-9-cyclopentyl-9H-purin-6-ylamino]-piperidin-1-yl}-1-quinoxalin-2-yl-methanone dihydrochloride], the IC50 in test [1] stood at 641 nM; in test [2] (setting [8]), 0.7 µM; in test [3], 0.33 µM; in test [4] (Homo sapiens, PC-3, MTT assay), 0.72 µM; in test [5], 0.16 µM; in test [6], 197 nM. The same compound registered an IC50 in test [7] of 339 nM.

For `N[C@H]1CC[C@H](Nc2nc(NC3CCN(C(=O)c4ccc5c(c4)OCO5)CC3)c3ncn(C4CCCC4)c3n2)CC1` [compound 5, trans-1-{4-[2-(4-Amino-cyclohexylamino)-9-cyclopentyl-9H-purin-6-ylamino]-piperidin-1-yl}-1-benzo[1,3]dioxol-5-yl-methanone dihydrochloride], the IC50 in test [2] (setting [8]) is 0.43 µM; in test [3] it was 0.27 µM; in test [4] (Homo sapiens, PC-3, MTT assay), 0.66 µM; in test [5] it was less than 0.02 µM.

For the compound `N[C@H]1CC[C@H](Nc2nc(NC3CCN(C(=O)c4cccc(Cl)c4)CC3)c3ncn(C4CCCC4)c3n2)CC1` [compound 6, trans-1-{4-[2-(4-Amino-cyclohexylamino)-9-cyclopentyl-9H-purin-6-ylamino]-piperidin-1-yl}-1-(3-chloro-phenyl)-methanone dihydrochloride], the IC50 in test [1] was 87 nM; in test [2] (MTT assay, dihydrochloride) it was 0.44 µM; in test [3], 0.24 µM; in test [4] (MTT assay, dihydrochloride), 1.2 µM; in test [5] it was less than 0.02 µM; in test [6] it was 160 nM. The compound also registered an IC50 in test [7] of 201 nM.

Consider `COc1ccccc1C(=O)N1CCC(Nc2nc(N[C@H]3CC[C@H](N)CC3)nc3c2ncn3C2CCCC2)CC1` [compound 7, trans-1-{4-[2-(4-Amino-cyclohexylamino)-9-cyclopentyl-9H-purin-6-ylamino]-piperidin-1-yl}-1-(2-methoxy-phenyl)-methanone dihydrochloride], for which the IC50 was 96 nM in test [1]; 1.34 µM in test [2] (setting [8]); 1.11 µM in test [3]; 2.26 µM in test [4] (Homo sapiens, PC-3, MTT assay); less than 0.02 µM in test [5]; 399 nM in test [6]. The same compound had an IC50 in test [7] of 487 nM.

Regarding `COc1ccc(C(=O)N2CCC(Nc3nc(N[C@H]4CC[C@H](N)CC4)nc4c3ncn4C3CCCC3)CC2)cc1` [compound 8, trans-1-{4-[2-(4-Amino-cyclohexylamino)-9-cyclopentyl-9H-purin-6-ylamino]-piperidin-1-yl}-1-(4-methoxy-phenyl)-methanone dihydrochloride], the IC50 in test [1] turned out to be 711 nM; in test [2] (setting [8]), 0.75 µM; in test [3], 0.18 µM; in test [4] (Homo sapiens, PC-3, MTT assay), 0.86 µM; in test [5], 0.06 µM; in test [6], 74 nM. This compound also returned an IC50 in test [7] of 137 nM.

Regarding `N[C@H]1CC[C@H](Nc2nc(NC3CCN(C(=O)c4cccs4)CC3)c3ncn(C4CCCC4)c3n2)CC1` [compound 10, trans-1-{4-[2-(4-Amino-cyclohexylamino)-9-cyclopentyl-9H-purin-6-ylamino]-piperidin-1-yl}-1-thiophen-2-yl-methanone dihydrochloride], the IC50 in test [1] is 761 nM; in test [2] (setting [8]), 0.8 µM; in test [3] it was 0.14 µM; in test [4] (Homo sapiens, PC-3, MTT assay) it was 1.24 µM; in test [5] it was less than 0.02 µM; in test [6], 49 nM. In test [7], this compound returned an IC50 of 57 nM.

As for `COC(=O)c1ccc(C(=O)N2CCC(Nc3nc(N[C@H]4CC[C@H](N)CC4)nc4c3ncn4C3CCCC3)CC2)cc1` [compound 11, trans-4-(1-{4-[2-(4-Amino-cyclohexylamino)-9-cyclopentyl-9H-purin-6-ylamino]-piperidin-1-yl}-methanoyl)-benzoic acid methyl ester dihydrochloride], the IC50 in test [1] amounted to 620 nM; in test [2] (setting [8]) it was 0.57 µM; in test [3], 0.39 µM; in test [4] (Homo sapiens, PC-3, MTT assay), 0.72 µM; in test [5], 0.27 µM; in test [6] it was 46 nM. The compound also displayed an IC50 in test [7] of 78 nM.

As to `N[C@H]1CC[C@H](Nc2nc(NC3CCN(C(=O)/C=C/c4cccc(C(F)(F)F)c4)CC3)c3ncn(C4CCCC4)c3n2)CC1` [compound 44, trans-(E)-1-{4-[2-(4-Amino-cyclohexylamino)-9-cyclopentyl-9H-purin-6-ylamino]-piperidin-1-yl}-3-(3-trifluoromethyl-phenyl)-propenone dihydrochloride], the IC50 in test [2] (setting [8]) amounted to 0.22 µM; in test [3], 0.53 µM; in test [4] (Homo sapiens, PC-3, MTT assay), 0.29 µM; in test [5], 0.03 µM; in test [7], 76 nM.

Regarding `CC(C)[C@@H]1CC[C@@H](C)C[C@H]1OC(=O)N1CCC(Nc2nc(N[C@H]3CC[C@H](N)CC3)nc3c2ncn3C2CCCC2)CC1` [compound 86, trans-4-[2-(4-Amino-cyclohexylamino)-9-cyclopentyl-9H-purin-6-ylamino]-piperidine-1-carboxylic acid (1R,2S,5R)-2-isopropyl-5-methyl-cyclohexyl ester dihydrochloride], the IC50 stood at 0.52 µM in test [2] (setting [8]); 0.4 µM in test [3]; 0.69 µM in test [4] (Homo sapiens, PC-3, MTT assay); 0.29 µM in test [5].

The values above are taken from patent EP1377579B1 (Aventis Pharmaceuticals Inc., priority 2000, dated 2002).
